Data on two molecules can be found in PMC6719172, “Inhibition of CpLIP2 Lipase Hydrolytic Activity by Four Flavonols (Galangin, Kaempferol, Quercetin, Myricetin) Compared to Orlistat and Their Binding Mechanisms Studied by Quenching of Fluorescence” (Molecules, 2019).

Assay [1] concerns the target T1, CpLIP2 lipase (Candida parapsilosis, UniProt Q8NIN8). Put plainly: Fluorescence resonance energy transfer between CpLIP2 and flavonols (Förster theory). The format is binding. The source says:
Fluorescence emission spectra of CpLIP2 lipase overlap the UV absorption spectrum of each flavonol studied, that may induce fluorescence resonance energy transfer (FRET) governed by the binding distance r between the protein behaving as energy donor and the flavonol energy acceptor. The binding distance r can be calculated via Förster theory with the following Equations (10) and (11):(10) E=1−F/ F0=R06/ R06+r^6 where E is the energy transfer efficiency, which is the photons fraction absorbed and transferred by the donor to the acceptor, F and F0 are the fluorescence intensities of donor (CpLIP2) in the presence or absence of acceptor (flavonol) at the same concentrations. The parameter r is the distance between acceptor and donor, and R0 is the Förster distance, which is the critical energy transfer distance when 50% of the excitation energy is transferred from the donor to the acceptor. […] The value of R0 ranges from 20–90 Å for biological macromolecules.

Assay [2] addresses T1, CpLIP2 lipase. Briefly: Inhibition of CpLIP2 hydrolytic activity (ethyl oleate hydrolysis, GC). The format is biochemical. Conditions: for Ki: non-competitive or uncompetitive model. As for the experimental part: The effect of inhibitor concentrations on the hydrolysis reaction rate in standard conditions was assumed to follow either a non-competitive or an uncompetitive model, corresponding to Equation (1):(1) Ki=I/ V0/Vi−1 where V0 and Vi are the initial rates of the reaction without or with inhibitor at concentration I.
Standard CpLIP2 hydrolytic activity measurement. Hydrolysis activities were determined by measuring the initial rates of fatty acid and esters production (µmol·min^−1·mL^−1), using ethyl oleate (C18:1, EE) as substrates. Specific activity is the total activity expressed in µmol·min^−1·mL^−1 in relation to protein concentration (mg·mL^−1). Experiments were conducted as described by. Hydrolysis of ethyl oleate (EO) was performed in aqueous emulsions at 30 °C. This emulsion consisted of 100 µmol·mL^−1 EO emulsified by sonication (Branson Sonifier 250, 20 s, 200 watts, 145 µm amplitude) in an aqueous solution of 20 g·L^−1 poly vinyl alcohol. The reactions of hydrolysis were prepared in glass test tube by adding 100 μL of ethyl oleate emulsion to 800 µL of sodium phosphate buffer 50 mM, pH 6.5; then the solutions were incubated in water bath at 30 °C for 5 min. The reaction was started by the addition of 100 µL of enzyme solution of CpLIP2 with final concentration 3 µg·mL^−1 with activity 2000 U/mL.
The enzyme solution was pre-incubated at 25 °C, with continuous stirring at 350 rpm. Pre-incubation was conducted with 1980 µL CpLIP2 lipase diluted in sodium NaH2PO4/Na2HPO4 phosphate buffer (50 mM, pH 6.5) containing 20 µL absolute EtOH at 2 different times (1 and 30 min). This pre-incubation phase was conducted in closed vials placed during 2 h on a Radleys StarFish Multi-Experiment Workstation. The reaction was conducted for 15 min at 30 °C, and then stopped by adding 950 µL of a mixture of ethanol/sulphuric acid (100:0.8, v/v). After the addition of 50 µL of internal standards (ethanolic solution of pentadecanoic acid and its ethyl and methyl esters, 1 µmol each), lipids were extracted from the mixture with 1 mL of hexane. Samples were then prepared for analyzing esters and free fatty acids by gas chromatography (GC) as follows. Hexane extract (200 µL) was reacted with 25 µL pyridine and 25 µL N-methyl-tri (methylsilyl)-trifluoroacetamide (MSTFA) as silylating agent. Mixtures were incubated in water bath at 50 °C for 20 min, and then samples were ready for analysis. Reaction rates were determined by the analysis of fat composition by capillary gas chromatography after 15 min reaction. It was checked that less than 30% of the total substrate was converted at the end of the 15 min reaction.
A Shimadzu GC 2010 plus gas chromatograph equipped with a flame ionization detector, an automatic sampler (injected volume 0.1 μL) and a split/splitless injector was used for analysis. The capillary column was a DB-5ht (15 m × 0.25 mm, Phenomenex, Le Pecq, France). The helium carrier flow was 1 mL min^−1and the split ratio was 1:50. Temperature conditions were, for reactions with individual substrates: injector 280 °C, detector 290 °C, oven 200–225 °C at 10 °C min^−1 then to 260 °C at 35 °C·min^−1 for ethyl ester (EE) and fatty acid (FA) of C18:1. Calibration curves were realized using emulsions of mixtures of FA and monoesters prepared according to the same protocol, without enzyme and alcohol.
In order to measure the residual lipase activity in the presence of potential inhibitors, the previous method was conducted in the presence and absence of the inhibitors. For each potential inhibitor, the lipase-catalyzed rate of hydrolysis was evaluated after a pre-incubation period between the lipase and the potential inhibitors, which were solubilized in absolute ethanol at 1% of final concentration. The preincubation was performed at 25 °C with continuous stirring at 350 rpm with different concentration of inhibitors (14, 27.5, 55 µM) which represented, respectively 25, 50, 100-fold the final lipase concentration (0.55 µM). […]

The target in assay [3] is T1, CpLIP2 lipase. Briefly: Fluorescence emission spectrum of CpLIP2 inhibited by THL. In kind it is binding. The note with it: 20-fold molar excess THL, pre-incubation at 25 °C for 30 min, excitation 285 nm. On the procedure: As mentioned above, a mixture of 300 µL was pipetted in each well. 190 µL sodium phosphate buffer 50 mM, pH 7.0 with 100 µL of NaCl: EtOH (8:2, v/v) solution. […] In parallel, native and denatured lipases without THL were incubated in the same conditions. Denaturation of lipase was done by heating in water bath at 100 °C for 20 min.

Assay [4] has as its target C. rugosa commercial lipase. Also noted: method as in doi:10.1016/j.molcatb.2006.02.012. The note with it: cited from earlier work.

T1 sequence (Q8NIN8 entry or part of it): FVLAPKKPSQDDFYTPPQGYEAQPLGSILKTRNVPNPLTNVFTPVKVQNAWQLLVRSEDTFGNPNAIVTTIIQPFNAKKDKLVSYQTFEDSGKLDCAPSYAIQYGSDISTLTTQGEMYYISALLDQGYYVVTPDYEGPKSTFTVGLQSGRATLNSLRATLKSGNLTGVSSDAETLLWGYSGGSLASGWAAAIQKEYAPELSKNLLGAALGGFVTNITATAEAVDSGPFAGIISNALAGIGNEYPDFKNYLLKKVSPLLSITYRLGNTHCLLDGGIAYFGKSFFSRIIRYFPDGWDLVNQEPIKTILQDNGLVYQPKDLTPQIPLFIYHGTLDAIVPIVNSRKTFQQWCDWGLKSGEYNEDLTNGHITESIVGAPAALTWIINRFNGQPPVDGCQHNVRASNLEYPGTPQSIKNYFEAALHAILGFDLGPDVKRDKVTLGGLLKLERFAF

The term Ki denotes a dissociation constant, usually derived from enzyme kinetics or from competition with a known ligand. What is called inhibition is the relative decrease from the control value, in per cent. For the molecule `CCCCCCCCCCC[C@@H](C[C@@H]1OC(=O)[C@H]1CCCCCC)OC(=O)[C@H](CC(C)C)NC=O` [THL, tetrahydrolipstatin, reference compound], in assay [1], the “occurrence of FRET with CpLIP2 lipase” value was “no FRET occurred”. The Ki is 1.2 µM in assay [2] (estimated after 1 min of pre-incubation) and 0.6 µM in assay [2] (estimated after 30 min of pre-incubation). Moreover, in assay [2] (after 1 min pre-incubation, concentration not given), the “inhibition of CpLIP2 activity” value is listed as approximately 100%. Further, the inhibition at 14 µM in assay [2] (read-out: inhibition of CpLIP2 catalytic activity) was found to be 90%. Besides, in assay [2] (read-out: residual activity, 14 µM (25-fold molar excess), 1 min pre-incubation), the remaining activity at 14 µM came out at 17.7%. The remaining activity at 27.5 µM in assay [2] (read-out: residual activity, 27.5 µM (50-fold), 1 min pre-incubation) came to 3.9%. Further, the remaining activity at 55 µM in assay [2] (read-out: residual activity, 55 µM (100-fold), 1 min pre-incubation) turned out to be 2.3%. Further, the “blue shift of CpLIP2 fluorescence emission maximum” value in assay [3] is listed as 4 nm.
As usually defined, the IC50 is the point on the concentration scale where inhibition reaches its midpoint. Turning to (±)-catechin [reference compound], the 50% inhibitory concentration (IC50) in assay [4] was 7500 µM.
